These results are taken from ChEMBL document CHEMBL1781944, “The discovery of novel benzofuran-2-carboxylic acids as potent Pim-1 inhibitors” (Bioorg Med Chem Lett, 2011).

The target in data set [1] is T1, Serine/threonine-protein kinase pim-1 (Homo sapiens, UniProt P11309).
Target sequence in this assay (P11309 whole entry): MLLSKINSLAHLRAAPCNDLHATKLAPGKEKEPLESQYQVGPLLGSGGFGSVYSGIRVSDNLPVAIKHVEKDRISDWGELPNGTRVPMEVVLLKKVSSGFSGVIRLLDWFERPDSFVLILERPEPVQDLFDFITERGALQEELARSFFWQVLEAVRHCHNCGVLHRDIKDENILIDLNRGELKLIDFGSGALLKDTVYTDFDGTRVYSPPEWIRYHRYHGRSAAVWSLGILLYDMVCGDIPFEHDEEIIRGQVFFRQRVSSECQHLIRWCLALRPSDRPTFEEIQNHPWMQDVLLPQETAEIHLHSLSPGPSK
Data set [2] concerns the target Serine/threonine-protein kinase pim-2 (Homo sapiens, UniProt Q9P1W9).
The target of the next data set is T2, Cytochrome P450 1A2 (Homo sapiens, UniProt P05177).
T2 sequence (P05177 whole entry): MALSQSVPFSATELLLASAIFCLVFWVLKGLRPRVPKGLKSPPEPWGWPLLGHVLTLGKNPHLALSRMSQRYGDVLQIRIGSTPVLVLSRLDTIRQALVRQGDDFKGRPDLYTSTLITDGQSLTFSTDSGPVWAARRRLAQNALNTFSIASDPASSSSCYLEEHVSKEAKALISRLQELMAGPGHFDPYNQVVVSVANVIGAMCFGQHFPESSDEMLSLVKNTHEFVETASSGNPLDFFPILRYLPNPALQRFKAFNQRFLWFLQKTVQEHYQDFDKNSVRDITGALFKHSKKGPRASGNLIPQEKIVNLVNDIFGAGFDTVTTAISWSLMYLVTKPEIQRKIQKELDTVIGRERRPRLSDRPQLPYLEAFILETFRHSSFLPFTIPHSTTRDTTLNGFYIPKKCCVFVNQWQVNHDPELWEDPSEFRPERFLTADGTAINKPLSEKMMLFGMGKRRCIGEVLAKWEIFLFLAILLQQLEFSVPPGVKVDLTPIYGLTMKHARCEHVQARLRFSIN
Put plainly: Inhibition of CYP1A2 in human liver microsomes. The data set is classed as ADME, Microsome. (Microsomes from liver hold many membrane-bound enzymes, among them those of drug oxidation.)

The next data set deals with Cytochrome P450 2C19 (Homo sapiens, UniProt P33261). Put plainly: Inhibition of CYP2C19 in human liver microsomes. The data set is classed as ADME, Microsome.
Sequence of Cytochrome P450 2C19 (P33261 whole entry): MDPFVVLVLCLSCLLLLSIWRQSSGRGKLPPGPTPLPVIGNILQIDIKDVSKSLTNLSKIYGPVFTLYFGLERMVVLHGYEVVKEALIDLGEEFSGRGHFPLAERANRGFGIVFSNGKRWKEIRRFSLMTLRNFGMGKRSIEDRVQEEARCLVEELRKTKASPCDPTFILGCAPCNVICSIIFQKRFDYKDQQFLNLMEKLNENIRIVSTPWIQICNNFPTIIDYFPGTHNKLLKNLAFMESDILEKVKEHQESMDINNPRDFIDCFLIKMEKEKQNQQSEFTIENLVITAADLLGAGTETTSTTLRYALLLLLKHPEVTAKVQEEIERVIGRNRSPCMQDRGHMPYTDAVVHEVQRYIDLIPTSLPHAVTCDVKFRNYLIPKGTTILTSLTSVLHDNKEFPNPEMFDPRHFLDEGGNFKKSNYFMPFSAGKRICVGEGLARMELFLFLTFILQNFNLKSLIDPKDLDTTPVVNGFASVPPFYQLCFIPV
The nature of data set [3]: Intrinsic clearance in rat liver microsomes. The data set is classed as ADME, Microsome.
A further data set is described as follows: in vitro. Conditions: human, liver microsomes.
A further data set addresses Cytochrome P450 2D6 (Homo sapiens, UniProt P10635). Put plainly: Inhibition of CYP2D6 in human liver microsomes. In kind it is ADME, Microsome.
For another data set, the target named is Cytochrome P450 3A4 (Homo sapiens, UniProt P08684). Put plainly: Inhibition of CYP3A4 in human liver microsomes. In kind it is ADME, Microsome.
Sequence of Cytochrome P450 3A4 (P08684 whole entry): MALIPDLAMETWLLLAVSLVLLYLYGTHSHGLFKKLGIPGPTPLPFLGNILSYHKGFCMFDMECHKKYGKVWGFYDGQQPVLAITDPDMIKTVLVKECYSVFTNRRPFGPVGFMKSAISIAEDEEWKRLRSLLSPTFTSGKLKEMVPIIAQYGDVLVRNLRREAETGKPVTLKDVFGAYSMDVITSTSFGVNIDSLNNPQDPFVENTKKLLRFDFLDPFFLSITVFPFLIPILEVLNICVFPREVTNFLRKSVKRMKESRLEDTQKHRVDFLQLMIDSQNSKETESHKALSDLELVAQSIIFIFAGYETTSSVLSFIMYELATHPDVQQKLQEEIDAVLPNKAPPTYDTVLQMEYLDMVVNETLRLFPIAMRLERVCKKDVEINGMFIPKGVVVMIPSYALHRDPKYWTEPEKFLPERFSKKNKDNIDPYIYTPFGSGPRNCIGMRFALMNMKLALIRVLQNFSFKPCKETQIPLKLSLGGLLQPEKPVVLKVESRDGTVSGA
Data set [4] can be described thus: Solubility of the compound in phosphate buffered saline buffer at pH 7.4. In kind it is physicochemical.
The target in another data set is Cytochrome P450 2C9 (Homo sapiens, UniProt P11712). Briefly: Inhibition of CYP2C9 in human liver microsomes. In kind it is ADME, Microsome.
Sequence of Cytochrome P450 2C9 (P11712 whole entry): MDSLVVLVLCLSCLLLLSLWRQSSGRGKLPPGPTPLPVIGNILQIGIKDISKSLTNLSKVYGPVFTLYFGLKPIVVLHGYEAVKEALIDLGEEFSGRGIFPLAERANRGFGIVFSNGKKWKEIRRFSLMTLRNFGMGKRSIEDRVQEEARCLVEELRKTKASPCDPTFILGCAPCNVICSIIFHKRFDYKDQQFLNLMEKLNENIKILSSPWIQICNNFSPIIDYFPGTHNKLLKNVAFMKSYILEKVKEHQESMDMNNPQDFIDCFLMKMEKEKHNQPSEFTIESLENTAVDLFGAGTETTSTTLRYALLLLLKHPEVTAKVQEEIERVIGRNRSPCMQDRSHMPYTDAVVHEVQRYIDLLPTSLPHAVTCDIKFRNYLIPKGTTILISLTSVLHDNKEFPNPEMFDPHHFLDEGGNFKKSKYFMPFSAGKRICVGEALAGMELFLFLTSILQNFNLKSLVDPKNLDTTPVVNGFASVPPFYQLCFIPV
Data set [5] concerns the target T1, Serine/threonine-protein kinase pim-1. Conditions: 25 uM.
Target sequence in this assay (P11309 whole entry, looked up): as the sequence (P11309 whole entry) above

Each structure is given as a SMILES string. ≈ marks a conversion by molar mass, not a printed value. Calls of active or inactive are those of the source. The rule behind the calls is not given here.

Sequence of Serine/threonine-protein kinase pim-2 (Q9P1W9 whole entry): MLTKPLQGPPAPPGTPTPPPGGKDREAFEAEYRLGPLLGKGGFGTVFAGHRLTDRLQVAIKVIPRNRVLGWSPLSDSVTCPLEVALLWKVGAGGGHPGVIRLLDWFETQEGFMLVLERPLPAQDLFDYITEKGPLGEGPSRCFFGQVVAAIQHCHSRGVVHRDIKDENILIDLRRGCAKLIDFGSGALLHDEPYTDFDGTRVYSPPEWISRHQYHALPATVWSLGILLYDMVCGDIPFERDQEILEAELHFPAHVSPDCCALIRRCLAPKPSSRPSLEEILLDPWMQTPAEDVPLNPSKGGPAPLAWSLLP
Sequence of Cytochrome P450 2D6 (P10635 whole entry): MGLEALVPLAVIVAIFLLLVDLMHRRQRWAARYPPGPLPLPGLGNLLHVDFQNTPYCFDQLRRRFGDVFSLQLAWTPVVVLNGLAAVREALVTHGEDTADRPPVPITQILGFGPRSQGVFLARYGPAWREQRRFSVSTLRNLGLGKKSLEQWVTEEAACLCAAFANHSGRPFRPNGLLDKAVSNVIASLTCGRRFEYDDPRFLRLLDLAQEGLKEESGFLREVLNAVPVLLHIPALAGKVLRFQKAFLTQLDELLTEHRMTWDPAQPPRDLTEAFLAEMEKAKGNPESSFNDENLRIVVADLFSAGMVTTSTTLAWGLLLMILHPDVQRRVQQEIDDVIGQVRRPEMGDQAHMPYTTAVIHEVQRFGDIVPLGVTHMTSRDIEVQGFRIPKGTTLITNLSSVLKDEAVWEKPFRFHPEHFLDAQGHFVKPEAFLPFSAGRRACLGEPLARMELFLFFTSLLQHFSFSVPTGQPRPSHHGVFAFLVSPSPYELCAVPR

Turning to `O=C(O)c1cc2cc(-c3cncc(NC4CCNCC4)n3)ccc2o1`, the IC50 was found to be 210 nM in [1] and 150 nM in data set [2].
Consider `N[C@H]1CC[C@H](Nc2cc(Br)cc3cc(C(=O)O)oc23)CC1`, for which the IC50 is more than 10000 nM against Cytochrome P450 1A2; more than 10000 nM against Cytochrome P450 2C19; 66 nM in data set [2]; more than 10000 nM against Cytochrome P450 2D6; more than 10000 nM at Cytochrome P450 3A4; more than 10000 nM on Cytochrome P450 2C9. Also, the microsomal CLint in data set [3] was found to be 8.1 µL/min/mg; in “in vitro” it was 11.2 µL/min/mg. In data set [4], the solubility was more than 58 µg/mL.
Turning to `N[C@H]1CC[C@H](Nc2cncc(-c3ccc4oc(C(=O)O)cc4c3)n2)CC1`, half-maximal inhibition in [2] (IC50) was put at 54 nM.
On to `O=C(O)c1cc2cc(C(F)(F)F)ccc2o1`, for which the IC50 in data set [1] came to 5300 nM; in [2] it was 13500 nM.
On to `O=C(O)c1cc2cc(Br)cc(C(=O)NCC3CCNCC3)c2o1`, for which the IC50 in data set [1] amounted to 2700 nM; in [2], 1300 nM.
On the same counts, the results for `NC[C@H]1CC[C@H](Nc2cncc(-c3ccc4oc(C(=O)O)cc4c3)n2)CC1` are 53 nM and 21 nM.
As to `O=C(O)c1cc2cc(-c3cncc(NC4CNC4)n3)ccc2o1`, the IC50 in data set [1] worked out at 450 nM; in data set [2] it was 100 nM.
On the same counts, the results for `NCCCCNc1nccc(-c2ccc3oc(C(=O)O)cc3c2)n1` are 460 nM and 590 nM.
On the same counts, the results for `N[C@H]1CC[C@@H](Nc2cncc(-c3ccc4oc(C(=O)O)cc4c3)n2)CC1` are 200 nM and 110 nM.
As to `O=C(O)c1cc2cc(-c3cnn(C4CCNCC4)c3)ccc2o1`, the IC50 in data set [1] was 6000 nM; in [2], 5800 nM.
Taken in the same sequence, the figures for `O=C(O)c1cc2cc(Br)cc(N[C@H]3CC[C@H](O)CC3)c2o1` were 2400 nM and 6100 nM.
Taken in the same sequence, the figures for `O=C(O)c1cc2cc(Br)cc(OCC(=O)N3CCNCC3)c2o1` were 220 nM and 1300 nM.
Taken in the same sequence, the figures for `O=C(CC1CCNCC1)Nc1cc(Br)cc2cc(C(=O)O)oc12` were 55 nM and 340 nM.
In the case of `O=C(O)c1cc2cc(Br)cc(OCc3ccncc3)c2o1`, the IC50 in data set [1] was 4900 nM; in [2], 12500 nM.
For `O=C(O)c1cc2cc(OC(F)(F)F)ccc2o1`, in data set [1], the midpoint of inhibition, the IC50, lay at 6100 nM.
For the compound `O=C(O)c1cc2cc(Br)cc(NCC3CCNCC3)c2o1`, the IC50 on Cytochrome P450 1A2 was more than 10000 nM; in data set [1], 20 nM; at Cytochrome P450 2C19, more than 10000 nM; in data set [2], 190 nM; at Cytochrome P450 2D6 it was more than 10000 nM; against Cytochrome P450 3A4, more than 10000 nM. Also, the IC50 against Cytochrome P450 2C9 is more than 10000 nM. In addition, the microsomal CLint in data set [3] was found to be 14.1 µL/min/mg; in “in vitro”, 9.9 µL/min/mg. This compound also gave a solubility in data set [4] of more than 58 µg/mL.
Turning to `O=C(O)c1cc2cc(Br)cc(NCCC3CCNCC3)c2o1`, the figures for the IC50 in data set [1] and in [2] were 40 nM and 540 nM, respectively.
Regarding `N[C@H]1CC[C@@H](Nc2cc(Br)cc3cc(C(=O)O)oc23)CC1`, the IC50 against Cytochrome P450 1A2 is more than 10000 nM; at Cytochrome P450 2C19, more than 10000 nM; in data set [2] it was 4 nM; against Cytochrome P450 2D6, more than 10000 nM; against Cytochrome P450 3A4, more than 10000 nM; at Cytochrome P450 2C9, more than 10000 nM. Moreover, the figures for the intrinsic clearance (microsomal CLint) (in [3]; in “in vitro”) were 10 µL/min/mg and 10.2 µL/min/mg, respectively. Moreover, the solubility in data set [4] turned out to be 20.1 µg/mL (≈ 56.9 µM).
On to `O=C(O)c1cc2cc(Br)cc(OCC3CCCNC3)c2o1` (configuration not stated), for which the figures for the IC50 in data set [1] and in data set [2] were 71 nM and 350 nM, respectively.
For the compound `O=C(O)c1cc2cc(Br)cc(NC(=O)C3CCNCC3)c2o1`, the IC50 in data set [1] is 150 nM; in [2], 260 nM.
`O=C(O)c1cc2ccccc2o1` returned an IC50 in data set [1] of 119000 nM.
Turning to `Cn1cc(-c2ccc3oc(C(=O)O)cc3c2)cn1`, the IC50 in data set [1] was 5400 nM; in data set [2] it was 2900 nM.
For the compound `NCCCCNc1ccnc(-c2ccc3oc(C(=O)O)cc3c2)n1`, the IC50 stood at 1900 nM in data set [1] and 1200 nM in data set [2].
Consider `O=C(O)c1cc2cc(-c3cnccn3)ccc2o1`, for which the results for the IC50 in data set [1] and in [2] were 7400 nM and 11900 nM, respectively.
With `O=C(O)c1cc2cc(Br)cc(C(=O)NC3CCNCC3)c2o1`, the IC50 in data set [1] is 980 nM; in data set [2], 7000 nM.
Regarding `COc1cc(Br)cc2cc(C#N)oc12`, the inhibition result in data set [5] was “inactive”.
Regarding `O=C(O)c1cc2cc(Br)cc(OCC3CCNCC3)c2o1`, the IC50 in data set [1] is 60 nM; in data set [2] it was 250 nM.
On the same counts, the results for `O=C(O)c1cc2cc(Br)cc(N[C@H]3CC[C@@H](O)CC3)c2o1` are 2300 nM and 6800 nM.
For `O=C(O)c1cc2cc(Br)cc(OCCc3ccncc3)c2o1`, the IC50 in data set [1] was determined as 4500 nM; in data set [2], 21100 nM.
On the same counts, the results for `O=C(O)c1cc2cc(-c3cccnc3)ccc2o1` are 7800 nM and 7100 nM.
On the same counts, the results for `O=C(O)c1cc2cc(Br)cc(OCCC3CCNCC3)c2o1` are 51 nM and 350 nM.
Taken in the same sequence, the figures for `O=C(O)c1cc2cc(-c3cncc(NCC4CCNCC4)n3)ccc2o1` were 380 nM and 160 nM.

Usually IC50 stands for the concentration that inhibits the measured activity by half. The microsomal CLint is the capacity of the preparation to metabolise the compound, expressed as a volume cleared per time. The low end stands for greater metabolic stability, the high end for faster metabolism. Usually solubility stands for how much of the substance goes into solution per volume. A higher solubility goes with much dissolved substance.
